Test results as given in PubChem BioAssay (NCI).
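All cell lines were grown in 96-well plates and treated with compound for 48 hours. GI50: concentration for 50% inhibition of growth. TGI: total growth inhibition.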

Experiments:
Assay in all cases: NCI anticancer screen, dose series, 48 h
U251 CNS = tested on: U251 CNS
OVCAR-5 ovarian = tested on: OVCAR-5 ovarian
COLO 205 colon = tested on: COLO 205 colon
SNB-75 CNS = tested on: SNB-75 CNS
SNB-19 CNS = tested on: SNB-19 CNS
SK-MEL-2 melanoma = tested on: SK-MEL-2 melanoma
K-562 leukemia = tested on: K-562 leukemia
UACC-62 melanoma = tested on: UACC-62 melanoma
HT29 colon = tested on: HT29 colon
HS 578T breast = tested on: HS 578T breast
NCI-H226 lung = tested on: NCI-H226 lung
A498 renal = tested on: A498 renal
HCC-2998 colon = tested on: HCC-2998 colon
UACC-257 melanoma = tested on: UACC-257 melanoma
HCT-15 colon = tested on: HCT-15 colon
SR leukemia = tested on: SR leukemia
SK-OV-3 ovarian = tested on: SK-OV-3 ovarian
SF-268 CNS = tested on: SF-268 CNS
A549 NSCLC = tested on: A549 NSCLC
SK-MEL-5 melanoma = tested on: SK-MEL-5 melanoma
OVCAR-4 ovarian = tested on: OVCAR-4 ovarian
MDA-MB-231 breast = tested on: MDA-MB-231 breast
MDA-MB-435 = tested on: MDA-MB-435
HOP-62 NSCLC = tested on: HOP-62 NSCLC
SN12C renal = tested on: SN12C renal
MALME-3M melanoma = tested on: MALME-3M melanoma
SK-MEL-28 melanoma = tested on: SK-MEL-28 melanoma
NCI/ADR-RES ovarian = tested on: NCI/ADR-RES ovarian
SW-620 colon = tested on: SW-620 colon
UO-31 renal = tested on: UO-31 renal

In the case of Nc1cc(-c2ccccc2)n(C(=O)Nc2ccc(Oc3ccccc3)cc2)n1, the TGI (U251 CNS) is reported as over 100 µM, the GI50 (OVCAR-5 ovarian) is reported as 96.3 µM and the TGI (OVCAR-5 ovarian) is reported as over 100 µM. The GI50 (COLO 205 colon) was over 100 µM, the TGI (COLO 205 colon) was over 100 µM and the TGI (SNB-75 CNS) was 3.04 µM. The GI50 (SNB-19 CNS) was 91.5 µM, the TGI (SNB-19 CNS) was over 100 µM and the GI50 (SK-MEL-2 melanoma) was over 100 µM. The TGI (SK-MEL-2 melanoma) was over 100 µM, the GI50 (K-562 leukemia) was over 100 µM and the TGI (K-562 leukemia) was over 100 µM. For the same compound, the GI50 (UACC-62 melanoma) was over 100 µM, the TGI (UACC-62 melanoma) was over 100 µM and the GI50 (HT29 colon) was 19.1 µM. The TGI (HT29 colon) was over 100 µM, the GI50 (HS 578T breast) was 31.9 µM and the TGI (HS 578T breast) was over 100 µM. The GI50 (NCI-H226 lung) was 49.5 µM, the TGI (NCI-H226 lung) was over 100 µM and the GI50 (A498 renal) was over 100 µM. For the same compound, the TGI (A498 renal) was over 100 µM, the GI50 (HCC-2998 colon) was over 100 µM and the TGI (HCC-2998 colon) was over 100 µM. It also gave a GI50 (UACC-257 melanoma) of 84.5 µM, a TGI (UACC-257 melanoma) of over 100 µM and a GI50 (HCT-15 colon) of over 100 µM. The TGI (HCT-15 colon) was over 100 µM, the GI50 (SR leukemia) was 22.2 µM and the TGI (SR leukemia) was 43.5 µM. The GI50 (SK-OV-3 ovarian) was 68.9 µM, the TGI (SK-OV-3 ovarian) was over 100 µM and the GI50 (SF-268 CNS) was 30.8 µM. For the same compound, the TGI (SF-268 CNS) was over 100 µM, the GI50 (A549 NSCLC) was 27.8 µM and the TGI (A549 NSCLC) was over 100 µM. The GI50 (SK-MEL-5 melanoma) was over 100 µM, the TGI (SK-MEL-5 melanoma) was over 100 µM and the GI50 (OVCAR-4 ovarian) was 2.91 µM. It also gave a TGI (OVCAR-4 ovarian) of 27 µM, a GI50 (MDA-MB-231 breast) of 27.3 µM and a TGI (MDA-MB-231 breast) of over 100 µM. The GI50 (MDA-MB-435) was over 100 µM, the TGI (MDA-MB-435) was over 100 µM and the GI50 (HOP-62 NSCLC) was 30.2 µM. It also gave a TGI (HOP-62 NSCLC) of over 100 µM, a GI50 (SN12C renal) of 80.3 µM and a TGI (SN12C renal) of over 100 µM. The GI50 (MALME-3M melanoma) was over 100 µM, the TGI (MALME-3M melanoma) was over 100 µM and the GI50 (SK-MEL-28 melanoma) was 1.62 µM. For the same compound, the TGI (SK-MEL-28 melanoma) was 39.2 µM, the GI50 (NCI/ADR-RES ovarian) was 75.4 µM and the TGI (NCI/ADR-RES ovarian) was over 100 µM. For the same compound, the GI50 (SW-620 colon) was over 100 µM, the TGI (SW-620 colon) was over 100 µM and the GI50 (UO-31 renal) was 52.5 µM. For the same compound, the TGI (UO-31 renal) was over 100 µM.
